Assay results published in patent US5808062A, “Pyrone derivatives as protease inhibitors and antiviral agents” (Warner-Lambert Company, priority 1994, dated 1998).
Values after ≈ are worked out from the molar mass of the structure shown.

Tests used:
HIV-I Protease = target: T1, HIV-I Protease (Human immunodeficiency virus type 1 group M subtype B, UniProt P04585); assay: HIV Protease Inhibition (undecapeptide substrate hydrolysis, HPLC); format: biochemical; conditions: averaged; substrate 40 μM, 37° C., pH 4.7 DTT buffer, 5 minutes; read-out: 50% Inhibition Concentration (Averaged)
T1 construct: HIV-I Protease: The enzyme is obtained from Bachem Bioscience Inc; purchased Bachem Bioscience Inc
Method: DTT Buffer: 1.0 mM dithiothreitol (DTT) was prepared fresh daily in 0.1% polyethylene glycol (mw 8000) 80 mM NaOAc, 160 mM NaCl, 1.0 mM EDTA, and brought to pH 4.7 with HCl.
HIV-I Protease: The enzyme is obtained from Bachem Bioscience Inc. The undiluted enzyme is thawed from -80° C. and diluted 50-fold with DTT buffer. The solution is always kept at 0° C. on ice water and used in the experiment within 20 minutes after thawing.
Enzyme Substrate: Substrate III from Bachem Bioscience Inc. is the undecapeptide H-His-Lys-Ala-Arg-Val-Leu-p-Nitrophenylalanine-Glu-Ala-Norleucine-Ser-NH2 (>97% purity). A 200 μM stock solution in DTT buffer is prepared and stored on ice. Substrate solution is prepared fresh daily.
Test Compound: 10 mM inhibitor (I) in dimethyl sulfoxide (DMSO) is diluted to 200 μM with DTT buffer. From the 200 μM stock solution is made a 10 μM stock solution with 2% DMSO in DTT buffer. The two inhibitor solutions are used to make final [I]=100, 50, 20, 10, 5, 2, 1, 0.5 and 0 μM with 2% DMSO in DTT buffer in each reaction well (total inhibitor volume of 50 μl).
To each reaction well is added 20 μl of substrate (final concentration of 40 μM), 50 μl of inhibitor (at a concentration such that final dilution will produce the test concentration) and 20 μl of DTT buffer. The reaction plate (96 wells) is incubated at 37° C. for at least 5 minutes.
10 μl of the diluted protease is added to the reaction well while the reaction plate is shaking. Once shaken for 10 seconds, the plate is returned to the heating block at 37° C. (Final reaction volume=100 μl.)
The reaction is incubated for 5 minutes at 37° C. The reaction is stopped by placing the reaction plate on the shaker and adding 20 μl of 10% trifluoroacetic acid (TFA) and shaking for 10 seconds. The amount of proteolysis is then determined by separation of noncleaved substrate and two cleaved products with reverse-phase HPLC, while measuring absorbance at 220 nm to determine the relative peak areas of the three components. The relative peak areas are used to calculate % conversion to product as a function of inhibitor concentration. The data is plotted as % Control (the ratio of % conversion in the presence and absence of inhibitor×100) versus inhibitor concentration and fit with the equation Y=100/1+(X/IC50)^A, where IC50 is the inhibitor concentration at 50% inhibition and A is the slope of the inhibition curve.

[1] = system: Staphylococcus aureus UC-76; assay: Antibacterial activity, microtitration dilution method; format: cell-based; conditions: UC76, read-out: Antibacterial Activity, minimum inhibitory concentration (MIC)
Text: (§1) The compounds of the invention display antibacterial activity when tested by the microtitration dilution method as described in Heifetz, et al., Antimicr. Agents. & Chemoth. 6:124 (1974) which is incorporated herein by reference.
(§2) By use of the above referenced method, the following minimum inhibitory concentration values (MICs in μg/mL) were obtained for representative compounds of the invention vs. clinically relevant gram positive pathogens which have become highly resistant to conventional therapy in recent years.

[2] = system: Staphylococcus aureus H228; assay: as above; format: cell-based; conditions: read-out: Antibacterial Activity, minimum inhibitory concentration (MIC)
Text: as §1, §2

[3] = system: Enterococcus foecalis MGH2; assay: as above; format: cell-based; conditions: read-out: Antibacterial Activity, minimum inhibitory concentration (MIC)
Text: as §1, §2

[4] = system: Streptococcus pneumonia 5V-1; assay: as above; format: cell-based; conditions: Streptococcus pneumoniae, 5V1, read-out: Antibacterial Activity, minimum inhibitory concentration (MIC)
Text: as §1, §2

[5] = system: Streptococcus pyogenes C203; assay: as above; format: cell-based; conditions: read-out: Antibacterial Activity, minimum inhibitory concentration (MIC)
Text: as §1, §2

HIV = conditions: R. Nagorny et al., AIDS 1993; cited from earlier work

SMILES | MIC [1] [µg/mL] | MIC [2] [µg/mL] | MIC [3] [µg/mL] | MIC [4] [µg/mL] | MIC [5] [µg/mL] | IC50 (HIV-I Protease) [nM] | inhibition of HIV infection (in words) (HIV)
Cc1cc(C)cc(-c2cc(O)c(Sc3ccccc3C(C)C)c(=O)o2)c1 [Example 169, 6-(3,5-Dimethylphenyl)-4-hydroxy-3-[(2-isopropylphenyl)-thio]-2H-pyran-2-one] | – | – | – | – | – | 15 | –
O=c1oc(-c2ccc(OCCO)cc2)cc(O)c1SCCc1ccccc1 [Example 160, 4-Hydroxy-6-[4-(2-hydroxyethoxy)phenyl]-3-[(2-phenylethyl)thio]-2H-pyran-2-one] | – | – | – | – | – | 360 | –
CC(C)c1ccccc1Sc1c(O)cc(-c2cc(Cl)cc(Cl)c2)oc1=O [Example 193, 6-(3,5-Dichlorophenyl)-4-hydroxy-3-[(2-isopropylphenyl)thio]-2H-pyran-2-one] | – | – | – | – | – | 26 | –
CCC(=O)Oc1cc(-c2ccccc2)oc(=O)c1SCc1ccccc1 [Example 49, 2-Oxo-6-phenyl-3-[ (phenylmethyl)thio]-2H-pyran-4-ylpropanoic acid ester] | – | – | – | – | – | 1600 | –
CC(=O)CC(c1ccccc1)c1c(O)c2ccccc2oc1=O (stereo not drawn) [Warfarin, 3-(α-acetonylbenzyl)-4-hydroxycoumarin] | – | – | – | – | – | – | inhibiting cell-free and cell-mediated HIV infection
CC(C)c1ccccc1Sc1c(O)cc(-c2ccc(OCc3cccnc3)cc2)oc1=O [Example 172, 4-Hydroxy-3-[(2-isopropylphenyl)thio]-6-[4-(pyridin-3-ylmethoxy)phenyl]-2H-pyran-2-one] | 50 (≈ 112 µM) | 50 (≈ 112 µM) | 100 (≈ 224 µM) | 50 (≈ 112 µM) | 50 (≈ 112 µM) | – | –

The next lines start with results.

MIC [1] [µg/mL] | MIC [2] [µg/mL] | MIC [3] [µg/mL] | MIC [4] [µg/mL] | MIC [5] [µg/mL] | SMILES | IC50 (HIV-I Protease) [nM] | inhibition of HIV infection (in words) (HIV)
12.5 (≈ 36.3 µM) | 12.5 (≈ 36.3 µM) | 25 (≈ 72.5 µM) | 12.5 (≈ 36.3 µM) | 12.5 (≈ 36.3 µM) | O=c1oc(-c2ccccc2Cl)cc(O)c1SCc1ccccc1 [Example 2, 6-(2-chlorophenyl)-4-hydroxy-3-[(phenylmethyl)thio]-2H-pyran-2-one] | – | –
6.2 (≈ 15 µM) | 6.2 (≈ 15 µM) | 12.5 (≈ 30.2 µM) | 6.2 (≈ 15 µM) | 6.2 (≈ 15 µM) | CC(C)c1ccccc1Sc1c(O)cc(-c2cccc(-c3ccccc3)c2)oc1=O [Example 167, 6-(1,1'-Biphen-3-yl)-4-hydroxy-3-[(2-isopropylphenyl)thio]-2H-pyran-2-one] | – | –
25 (≈ 58.1 µM) | 25 (≈ 58.1 µM) | 50 (≈ 116 µM) | 25 (≈ 58.1 µM) | 25 (≈ 58.1 µM) | O=c1oc(-c2ccc(OCc3ccccc3)cc2)cc(O)c1SCCc1ccccc1 [Example 29, 4-Hydroxy-3-[(2-phenylethyl)thio]-6-[4-(phenylmethoxy)phenyl]-2H-pyran-2-one] | – | –
